Like-named read-outs stand apart in the source and are kept apart here. Ends that are not written are not given here.
How the values were obtained:
[1] = molecular target: T1, MBP-NS34a (Hepatitis C virus genotype 1b, UniProt P26662); assay: Phage ELISA: inhibition of binding of phage peptide and MBP-NS34a by library compounds; design: species or system human hepatitis C virus; details: for effect on binding of various phages to NS34a (figure legend): FIG. 3: clones other than phage peptide K13, FIG. 4: any clone; for inhibition of the binding of the MBP-NS34a and the phage peptide: compound serially diluted, OD 405 nm (FIG. 3, FIG. 4)
T1 construct: (including 979th to 1710th amino acids); made in house; host or cells: Escherichia coli XL2-Blue
Experimental: A binding inhibitor was screened by using the above phage ELISA system. As peptides used for screening, the phage peptides whose protease inhibitory activity was confirmed by using the synthetic peptides were prepared in an amount required for screening according to the method of Example 2 <3>. Each well of a 96-well microtiter plate was coated by using 50 μl of the MBP-NS34a protein solution prepared at 10 μg/ml. The plate was blocked by using 100 μl of 0.5% BSA solution prepared with 10 mM NaHCO3 and rinsed once with 200 μl of TBS buffer for each well. A mixed solution of a compound in a chemical library (synthesized in our company) diluted to an appropriate concentration and each phage prepared as described above was prepared, and the mixture was added to each well coated with the MBP-NS34a protein in an amount of 100 μl and incubated overnight at 4° C. Each well was washed with 200 μl of TBS buffer four times. Then, 50 μl of horseradish peroxidase (HRP)-conjugated sheep anti-M13 phage diluted 2000 times with 5% skim milk was introduced into each well and incubated at room temperature for 1 hour.
Each well was washed with 200 μl of TBS containing 0.5% Tween-20, five times. Then, 100 μl of ABTS solution was added thereto and further incubated at room temperature. The optical density at 405 nm was measured by using a 96-well plate reader (BIO-RAD). There was selected Compound HCP1271 (Compound 5 described in Japanese Patent Laid-Open (KOKAI) No. 2000-7645), in the presence of which the optical density by binding of the MBP-NS34a and the phage peptide was lower than the optical density observed in the absence of the compound. Further, this inhibitory compound was serially diluted and its influence on the binding of 5 kinds of other phage peptides, which inhibited the NS3 protease activity, was similarly determined by the phage ELISA method. […] Further, since a compound HCP1231 similar to HCP1271, was retrieved by the search of the chemical library, its NS3 protease activity inhibitory ability and influence on the binding of the phage peptide and the NS3 protease were examined. […] That is, it was shown that the compound obtained from screening of the inhibitor for binding of the phage peptide and the protease protein could inhibit the protease activity very well.

[2] = molecular target: T2, NS3 protease (MBP-NS34a) (Hepatitis C virus genotype 1b, UniProt P26662); assay: NS3 protease inhibitory activity test using substrate cleavage reaction as index; assay type: biochemical, human hepatitis C virus
T2 construct: (including 979th to 1710th amino acids); made in house; host or cells: Escherichia coli XL2-Blue
Experimental: An NS3 protease cleavage sequence between NS5a and NS5b in the HCV polypeptide was synthesized. The protease inhibitory ability of each of the synthetic peptides was examined according to the method of Kakiuchi et al., in which a synthetic substrate having an amino terminus labeled with a dansyl group was reacted in the presence of a protease and a cleavage degree is measured by reverse phase HPLC (Biochem. Diophys. Res. Commun., 210, 1059, 1995). 1 μg of the purified MBP-NS34a and a reaction mixture (50 mM Tris-HCl (pH 7.5), 30 mM NaCl, 5 MM MgCl2 and 10 mM DTT) containing an evaluation sample prepared at an appropriate concentration were incubated at 25° C. for 15 minutes. To the solution, the synthesized substrate was added at a final concentration of 50 μM, and the mixture was allowed to react at 37° C. for 1 to 3 hours. Subsequently, the enzymatic reaction was stopped by adding a reaction-stopping solution (20% acetonitrile, 0.1% TFA) in a volume 9 times as much as the reaction volume. Then, the cleavaged peak of the synthesized substrate was detected (excited at 340 nm and measured at 510 nm) by a reverse phase column (YMC-AM-302) to calculate the cleavage rate when the inhibitor was added. Further, a value obtained by dividing this cleavage rate when the inhibitor was added by the cleavage rate when no inhibitor was added, was subtracted from 1 and then multiplied by 100. The obtained value was used as the inhibition rate (%) of the evaluated drug. In the above method, the peptide concentration inhibiting 50% of the protease activity (IC50) was calculated (Table 2).

[3] = molecular target: T1, MBP-NS34a; assay: Phage ELISA: inhibition of binding of phage peptide and MBP-NS34a by NS4a peptide 4A18-40; design: species or system human hepatitis C virus; details: 4A18-40 peptide in 10-fold and 20-fold molar excess (FIG. 2)
Text: A possibility that an action site of each phage peptide clone obtained as described above and that of the NS4a peptide derived from virus known to be activated by the binding to the NS3 protein were identical or overlapped was examined. A partial peptide of the NS4a peptide composed of the 18th to 40th residues from the amino terminus (referred to as 4A18-40 peptide) is known as a minimal region required to enhance the NS3 protease activity (Tanji et al., J. Virol., 69, 4017-4026, 1995). Accordingly, an influence on the binding of each phage peptide and the MBP-NS34a protein was analyzed by the phage ELISA method using a chemically synthesized 4A18-40 peptide ([…], SEQ ID NO; 19). 10 μg/ml of the MBP-NS34a protein to which the 4A18-40 peptide was added in an amount of 10 or 20 times in excess in a molar ratio was immobilized on each well of a 96-well microtiter plate. The plate was blocked by using 100 μl of 0.5% BSA solution prepared with 10 mM NaHCO3, and rinsed once with 200 μl of TBS buffer. […]
Each well was washed with 200 μl of TBS containing 0.5% Tween 20 five times. […] The optical density at 405 nm was measured by a 96-well plate reader (BIO-RAD). The optical density due to binding of the MBP-NS34a and the phage peptide observed in the presence of the NS4a peptide was measured.

T2 sequence (P26662 979-1710): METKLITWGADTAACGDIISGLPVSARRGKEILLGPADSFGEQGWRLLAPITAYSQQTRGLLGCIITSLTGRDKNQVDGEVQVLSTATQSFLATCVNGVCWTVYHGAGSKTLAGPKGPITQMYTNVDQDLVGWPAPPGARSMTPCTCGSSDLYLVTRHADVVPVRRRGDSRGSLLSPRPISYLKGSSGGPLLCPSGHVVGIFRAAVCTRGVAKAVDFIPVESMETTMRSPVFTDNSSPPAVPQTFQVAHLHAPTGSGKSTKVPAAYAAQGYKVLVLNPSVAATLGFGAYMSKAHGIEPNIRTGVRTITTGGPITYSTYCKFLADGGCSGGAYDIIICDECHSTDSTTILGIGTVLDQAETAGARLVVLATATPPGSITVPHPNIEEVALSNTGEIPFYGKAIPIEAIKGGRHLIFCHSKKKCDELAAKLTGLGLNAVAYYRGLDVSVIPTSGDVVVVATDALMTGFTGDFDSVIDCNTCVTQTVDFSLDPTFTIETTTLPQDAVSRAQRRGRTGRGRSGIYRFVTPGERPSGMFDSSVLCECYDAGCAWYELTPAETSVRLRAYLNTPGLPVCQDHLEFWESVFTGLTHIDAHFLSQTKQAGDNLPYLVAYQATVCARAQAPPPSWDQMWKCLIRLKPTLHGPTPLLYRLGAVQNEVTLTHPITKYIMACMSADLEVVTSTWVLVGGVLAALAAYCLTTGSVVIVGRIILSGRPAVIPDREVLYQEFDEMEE
T1 sequence (P26662 979-1710): as above

Compound | effect on binding of various phages to NS34a (figure legend) [1] | inhibition of the binding of the MBP-NS34a and the phage peptide [1] | IC50 [2] [µM] | further results
CCCCCCNC(=O)c1cc(Cl)ccc1NS(=O)(=O)c1ccc(Cl)cc1 [HCP1231] | Binding of any clone was not inhibited | scarcely inhibited the binding |  | NS3 protease activity inhibitory ability (in words) [2]: very weak protease activity inhibitory activity
O=C(Nc1ccc(Oc2c(Cl)cc(Cl)cc2Cl)cc1)c1cc(Cl)ccc1NS(=O)(=O)c1ccc2ccccc2c1 [HCP1271] | inhibited in a concentration-dependent manner | concentration-dependently inhibited the binding |  | IC50 ([2]; method of Example 3 <1>, read-out: NS3 protease activity IC50 value): 2.2 µM
IWHFSFMWI [Clone K1, IWHFSFMWI] |  |  | 15 | 
LTTGSVVIVGRIILSGRPAVVPD [4A18-40 peptide] |  |  |  | inhibition of binding of phage clone K13 to the MBP-NS34a protein [3]: increasingly inhibited; inhibition of binding of phage clone K13 to the MBP-NS34a protein ([3]; listed as NS4a peptide): inhibited the binding in a concentration-dependent manner
WVFFWLSRP [Clone J95, WVFFWLSRP] |  |  | 15 | 
